Where two headings read alike, the source gives them in different places.
Key:
[1] = system: CYP1A1 Supersomes; settings: read-out: IC50 for inhibition of CYP1A1 Supersomes; insect cell-derived microsomes, Corning-Gentest; cited from earlier work
[2] = molecular target: T1, CYP1A1 enzyme (Homo sapiens, UniProt P04798); assay: Live-cell IC50 determination, CYP1A1 expressed in yeast cells, 7-ethoxyresorufin (7-ER) substrate; type: cell-based; settings: 1 × 10^7 cells, 10 min incubation
T1 construct: expressed in transfected cells; host or cells: Saccharomyces cerevisiae W303-1A derived strains yRD+ (+CPR) and yRD-::Bax (-CPR)
T1 sequence (P04798 1-512): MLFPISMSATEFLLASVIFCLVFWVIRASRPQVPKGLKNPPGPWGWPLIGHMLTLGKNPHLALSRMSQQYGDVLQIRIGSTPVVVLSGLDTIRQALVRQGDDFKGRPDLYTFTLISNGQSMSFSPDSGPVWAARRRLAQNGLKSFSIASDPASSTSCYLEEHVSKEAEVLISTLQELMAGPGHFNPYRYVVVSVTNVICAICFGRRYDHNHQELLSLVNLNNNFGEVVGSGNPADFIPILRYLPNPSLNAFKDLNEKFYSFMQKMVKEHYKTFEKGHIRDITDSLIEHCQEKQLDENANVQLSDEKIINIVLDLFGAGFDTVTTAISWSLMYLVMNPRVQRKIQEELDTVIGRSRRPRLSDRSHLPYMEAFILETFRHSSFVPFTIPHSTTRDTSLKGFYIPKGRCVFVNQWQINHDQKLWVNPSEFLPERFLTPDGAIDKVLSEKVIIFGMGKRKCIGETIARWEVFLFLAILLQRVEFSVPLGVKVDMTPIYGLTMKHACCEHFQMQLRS
Experimental: The IC50 values were calculated using the GraphPad Prism software.

[3] = system: CYP1A2 Supersomes; design: method as in PMID 19359406; settings: insect cell-derived microsomes, Corning-Gentest, 10 min incubation with microsomal enzyme; read-out: IC50 for inhibition of CYP1A2 Supersomes; cited from earlier work

In the case of `O=c1cc(-c2ccccc2)oc2c1ccc1ccccc12` [ANF, Alpha-naphthoflavone], the IC50 [1] is listed as 18 nM, the IC50 ([2]; live yeast strain yRD+ (+CPR), read-out: IC50 for inhibition of CYP1A1 in yRD+ cells) is listed as 20.8 nM and the IC50 ([2]; live yeast strain yRD−:: Bax (–CPR), read-out: IC50 for inhibition of CYP1A1 in yRD- cells) is listed as 21.3 nM.

In the case of `Cc1nc2c([nH]1)c(=O)n(C)c(=O)n2Cc1ccco1` [Furafylline], the IC50 [3] is given as 6100 nM.
